The values that follow come from patent publication US20210379210A1, “RADIOLIGANDS FOR IMAGING THE LPA1 RECEPTOR” (BRISTOL-MYERS SQUIBB COMPANY, priority 2018, published 2021).

For the test, the target named is human LPA1 (Homo sapiens, UniProt Q92633). As to the kind of experiment: In-vitro whole cell binding: competition with the ^18F tracer. The note with it: CHO cells overexpressing human LPA1; ^18F tracer 3.8 nM; room temperature 1 hr; read-out: IC50, inhibition of binding of the ^18F tracer. The method, then: The effectiveness of compounds of the present invention as LPA1 inhibitors can be determined in an LPA1 binding assay as follows: Chinese hamster ovary cells overexpressing human LPA1 were maintained in F12 medium (Gibco #11765) supplemented with 10% fetal bovine serum and 1 mg/ml hygromycin (Invitrogen #10687-010). On day of assay, 150 cm^2 flasks of subconfluent cells were harvested with TripLE Express Dissociation reagent (Gibco #12605-010), counted, centrifuged, and resuspended in ice-cold Binding Assay Buffer (BAB: 50 mM HEPES pH 7.2, 100 mM NaCl, 2 mM EDTA) at 2×10^6 cells per ml. Cells were kept on ice until use. Test compound dilution plates were prepared by serially diluting test compounds (2 mM stock in 100% DMSO, […] dilutions) in DMSO, then diluting 1:50 in BAB to generate twelve half-log test concentrations at 4× final concentration. Binding assay were carried out in non-binding surface 96-well plates (Corning #3605) at room temperature for 1 hour. […] Individual filter discs were cut out of the filter plate and counted in a gamma counter. IC50 values were determined by fitting the data to a 4-parameter logistic equation (GraphPad Prism, San Diego Calif.).
human LPA1, sequence (Q92633 whole entry): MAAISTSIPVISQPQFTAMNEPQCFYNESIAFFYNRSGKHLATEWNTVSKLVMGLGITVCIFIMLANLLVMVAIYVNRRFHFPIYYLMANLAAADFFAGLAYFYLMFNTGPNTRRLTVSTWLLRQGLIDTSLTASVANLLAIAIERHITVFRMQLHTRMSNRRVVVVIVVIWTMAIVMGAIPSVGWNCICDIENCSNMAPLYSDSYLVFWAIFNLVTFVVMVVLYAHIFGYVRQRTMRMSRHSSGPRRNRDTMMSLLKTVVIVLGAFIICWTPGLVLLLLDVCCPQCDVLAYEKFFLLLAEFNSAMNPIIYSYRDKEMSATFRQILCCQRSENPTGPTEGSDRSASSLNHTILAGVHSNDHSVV

Consider `Cc1nc(-c2nnn(C)c2COC(=O)N(C)CCCCF)ccc1O[C@H]1CCC[C@H](C(=O)O)C1` [Example 14], for which the IC50 (commonly the point on the concentration scale where inhibition reaches its midpoint) was 24.5 nM.
